Read-outs that look alike come from different tables or passages of the source. No end group written: not given here.
Experiments:
[1] = tested on: spontaneously hypertensive rats (SP-SHR); test: Blood pressure after topical application in spontaneously hypertensive rats; type: in vivo, rat
Excerpt: To evaluate the ability of the amphiphilic peptide derivatives to exert systemic biological action after topical application, spontaneously hypertensive rats (SP-SHR) and Ang-(1-7) derivatives, as prepared in Example 1 were used.
SP-SHR rats (4-5 months-old with about 270 g body weight) were instrumented for acute blood pressure measurements using tribromoethanol anesthesia. Just after the arterial catheter implantation, the interscapular region was shaved for topical application of the formulation. Blood pressure (BP) was recorded 24 h after surgery (base line BP=173.0±6.2). BP was recorded in unanesthesized animals under resting conditions for 1 h. After that, a solution of Ang-(1-7) derivatives was applied topically (20 μl at 1 mg/ml) and BP was continuously recorded for 6 h.

[2] = in vivo; cited from earlier work
rats = settings: subcutaneous, 10 mg/(kg day) for 28 days; cited from earlier work
dogs = settings: subcutaneous, 10 mg/(kg day) for 28 days; cited from earlier work
[3] = human, in vivo; cited from earlier work
[4] = topical application 20 μl at 1 mg/ml

Substance | duration of BP decrease [1, 4] | start of BP decrease after application [1, 4] [min] | decrease of BP ([1]; topical application 20 μl at 1 mg/ml, BP recorded for 6 h) | plasma half-life [2] | detectable toxicities (rats) | change in BP ([1]; topical application) | detectable toxicities (dogs) | plasma half-life [3] [min]
Ang-(1-7) ester derivatives: Product of Example 1: Ang-(1-7) esterified with 1-octanol, mainly diester at C-terminal and Asp carboxyl groups, plus monoesters (DRVYIHP; not fully specified (residue 1, C-terminus); also: mixture: mainly diester at C-terminal and Asp carboxyl groups, plus monoesters; UniProt P01019 25-31, looked up) | up to 6 h | 90 | up to 25 mmHg | – | – | – | – | –
Asp^1-Arg^2-Val^3-Tyr^4-Ile^5-His^6-Pro^7 [Ang-(1-7)] | – | – | – | about 10 min | did not lead to any detectable toxicities | did not cause significant change in BP | did not lead to any detectable toxicities | ~30

From patent US20160168224A1, “PROCESS FOR PREPARING AMPHIPHILIC PEPTIDE DERIVATIVES” (UNIVERSIDADE FEDERAL DE MINAS GERAIS - UFMG, priority 2013, published 2016)
